Laboratory results reported in ChEMBL document CHEMBL1157182, “Structural insights into the Plasmodium falciparum histone deacetylase 1 (PfHDAC-1): A novel target for the development of antimalarial therapy” (Bioorg Med Chem, 2008).

Assays:
Plasmodium falciparum [1] = assay: Antimalarial activity against chloroquine-sensitive Plasmodium falciparum D6 after 48 hrs by LDH reporter assay; type: functional, organism-based; conditions: D6, 48 h
Plasmodium falciparum [2] = assay: Antimalarial activity against chloroquine-resistant Plasmodium falciparum W2 after 48 hrs by LDH reporter assay; type: functional, organism-based; conditions: W2, 48 h

## O=C(CCCCCCCC(=O)NO)NO [AZELAIC BIS HYDROXAMIC ACID]
Plasmodium falciparum [1]; read-out: IC50
  IC50: 5500 nM
Plasmodium falciparum [1]; read-out: pIC50 (converted)
  IC50: 5500 nM
Plasmodium falciparum [2]; read-out: IC50
  IC50: 3900 nM
Plasmodium falciparum [2]; read-out: pIC50 (converted)
  IC50: 3890 nM

## C[C@@H]1CC[C@H]2[C@@H](C)C(=O)O[C@@H]3O[C@@]4(C)CC[C@@H]1[C@]32OO4 [ARTEMISININ]
Plasmodium falciparum [1]; read-out: IC50
  IC50: 9 nM
Plasmodium falciparum [2]; read-out: IC50
  IC50: 1 nM

## O=C(NO)c1ccccc1O [SALICYLHYDROXAMIC ACID]
Plasmodium falciparum [1]; read-out: IC50
  IC50: 35700 nM
Plasmodium falciparum [1]; read-out: pIC50 (converted)
  IC50: 35500 nM
Plasmodium falciparum [2]; read-out: IC50
  IC50: 51300 nM
Plasmodium falciparum [2]; read-out: pIC50 (converted)
  IC50: 51300 nM

## CC(/C=C/C(=O)NO)=C\[C@@H](C)C(=O)c1ccc(N(C)C)cc1 [TRICHOSTATIN]
Plasmodium falciparum [1]; read-out: IC50
  IC50: 15.6 nM
Plasmodium falciparum [1]; read-out: pIC50 (converted)
  IC50: 15.5 nM
Plasmodium falciparum [2]; read-out: IC50
  IC50: 10 nM
Plasmodium falciparum [2]; read-out: pIC50 (converted)
  IC50: 9.77 nM

## O=C(CCCCCCC(=O)NO)NO [SUBEROHYDROXAMIC ACID]
Plasmodium falciparum [1]; read-out: IC50
  IC50: 2230 nM
Plasmodium falciparum [1]; read-out: pIC50 (converted)
  IC50: 2240 nM
Plasmodium falciparum [2]; read-out: IC50
  IC50: 1530 nM
Plasmodium falciparum [2]; read-out: pIC50 (converted)
  IC50: 1510 nM
